Measurements published in US10208019B2, “GLP-1 receptor agonists and uses thereof” (Pfizer Inc., priority 2016, dated 2019).
pEC50: −log10 of the molar value.

Tests used:
human GLP-1R [1] = target: human GLP-1R (Homo sapiens (Human), UniProt P43220, L260F); experiment: CHO GLP-1R Clone C6—Assay 2: HTRF cAMP cell-based functional agonist assay (low GLP-1R density)
human GLP-1R [2] = target: human GLP-1R (Homo sapiens, UniProt P43220, G168S); experiment: CHO GLP-1R Clone H6—Assay 1: HTRF cAMP cell-based functional agonist assay (high GLP-1R density)
Chain of human GLP-1R (Homo sapiens, UniProt P43220, G168S) (P43220 24-463 G168S limits assumed): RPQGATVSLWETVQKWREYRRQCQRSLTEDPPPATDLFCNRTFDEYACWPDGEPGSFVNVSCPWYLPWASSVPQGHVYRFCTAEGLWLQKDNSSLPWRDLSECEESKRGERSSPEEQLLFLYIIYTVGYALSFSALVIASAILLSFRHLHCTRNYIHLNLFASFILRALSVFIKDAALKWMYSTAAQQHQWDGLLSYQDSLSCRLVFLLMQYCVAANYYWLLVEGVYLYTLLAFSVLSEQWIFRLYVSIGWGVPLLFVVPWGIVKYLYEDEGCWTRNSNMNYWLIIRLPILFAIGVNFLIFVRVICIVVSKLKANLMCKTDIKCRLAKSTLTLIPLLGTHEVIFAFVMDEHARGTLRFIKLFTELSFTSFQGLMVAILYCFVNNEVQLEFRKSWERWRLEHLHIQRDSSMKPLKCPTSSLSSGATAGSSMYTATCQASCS

Chain of human GLP-1R (Homo sapiens (Human), UniProt P43220, L260F) (P43220 24-463 L260F): as the sequence (P43220 24-463 G168S limits assumed) above, with S145G, L237F counted along it

SMILES: COCCn1c(CN2CCN(c3cccc(OCc4ccc(Cl)cc4F)n3)C[C@H]2C)nc2ccc(C(=O)O)cc21 [Example 12A-11, 2-{[(2R)-4-{6-[(4-chloro-2-fluorobenzyl)oxy]pyridin-2-yl}-2-methylpiperazin-1-yl]methyl}-1-(2-methoxyethyl)-1H-benzimidazole-6-carboxylic acid]
- pEC50 (human GLP-1R [1]; CHO GLP-1R Clone C6, cAMP HTRF, geometric mean): 5.68
- Emax (human GLP-1R [1]; CHO GLP-1R Clone C6, relative to saturating concentration of full agonist GLP-1 (1 μM), arithmetic mean, read-out: Assay 2 Emax (%)): 100%
- EC50 (human GLP-1R [2]; Assay 1 EC50 (nM), CHO GLP-1R Clone H6, cAMP HTRF, geometric mean): 54 nM
- Emax (human GLP-1R [2]; read-out: Assay 1 Emax (%), CHO GLP-1R Clone H6, relative to saturating concentration of full agonist GLP-1 (1 μM), arithmetic mean): 81%
